Assay: Solubility (complete dissolution) of memantine hydrochloride in solvents
Type: physicochemical
Description: In particular, memantine hydrochloride is soluble in water, allowing the complete dissolution of memantine hydrochloride at room temperature at a concentration of 50 mg per milliliter (ml). The use of a relatively concentrated solution, e.g. about 50 mg per ml is therefore preferred.
In a first step of the distillation process, memantine hydrochloride is preferably dissolved in an […] solvent; more preferably dissolved in a straight or branched chain C1-C4 alcohol solvent, and most preferably dissolved in methanol or ethanol to form a solution. Memantine hydrochloride is soluble in methanol or ethanol, allowing the complete dissolution of memantine hydrochloride at ambient temperature.
(§1) In particular, memantine hydrochloride is soluble in methanol, allowing the complete dissolution of memantine hydrochloride in methanol at ambient temperature with a concentration of 30 mg per milliliter (ml). The use of a relatively concentrated solution, e.g. about 30 mg per ml is therefore preferred for methanol.
as §1, with “ethanol,” for “methanol,”, “ethanol” for “methanol”, “20” for “30”, “ml.” for “milliliter (ml).”, “ethanol.” for “methanol.”

CC12CC3CC(C)(C1)CC(N)(C3)C2.Cl [memantine hydrochloride, 1-amino-3,5-dimethyltricyclo[3,3,1,1^3,7]decane hydrochloride]
solubility in ethanol (complete dissolution with a concentration of) (ethanol, ambient temperature): ≥ 20 mg per ml
solubility in methanol (complete dissolution with a concentration of) (methanol, ambient temperature): ≥ 30 mg per milliliter (ml)
solubility in water (complete dissolution at a concentration of) (water, room temperature): ≥ 50 mg per milliliter (ml)

Reference: patent US20050222271A1, “Novel amorphous form of memantine hydrochloride” (priority 2004, published 2005)
